In one experiment the target is T1, BCL-xL (Homo sapiens, UniProt Q07817).
T1 construct: endogenous in cells; host or cells: Jurkat (ATCC TIB-152)
Briefly: Immunoblot degradation of BCL-xL in Jurkat cells. Type of experiment: cell-based. The note with it: for DC50: 16 h treatment, immunoblot. The protocol:
The data are presented as mean ± s.d. from three replicate cell cultures in a representative experiment for Jurkat cells. h Left, WH244 induces polyubiquitination of WT, K22R BCL-2 and to some extent K17R but not K17/22R BCL-2 in 293T cells. 293T cells were co-transfected as indicated with Flag-BCL−2 WT or mutants and HA-tagged ubiquitin (HA-Ub) plasmids. After 36 h, cells were pretreated with MG132 (10 µM) for 2 h and then treated with or without WH244 (1 μM) for 5 h. The Flag-tagged proteins were immunoprecipitated (IP) and immunoblotted with HA or Flag antibody. Right, The input blot for this assay. Data are a representative of two independent experiments. Source data are provided as Source Data file.
Cells were collected, washed once with ice-cold phosphate-buffered saline, pH 7.2 (PBS, cat. no. 20012027; Thermo Fisher Scientific) and lysed in RIPA lysis buffer (Cat. No. BP-115DG, Boston Bio Products, Ashland, MA, USA) supplemented with protease and phosphatase inhibitor cocktails (Cat. No. PPC1010, Sigma-Aldrich, St. Louis, MO, USA) through sonication. The samples were centrifuged at 15,000 × g for 5 min and the supernatants were transferred into a new tube. The protein concentration in the supernatants was determined using the Pierce BCA protein Assay kit (cat. no. 23225, Thermo Fisher Scientific). The protein concentration was normalized, and the samples were reduced in 4× Laemmli’s SDS-sample buffer (cat. no. BP-110R, Boston Bio Products) and denatured at 95 °C for 5 min. An equal amount of protein samples (20–40 μg per lane) were resolved using precast 4–20% Tris-glycine gels (Mini-PROTEAN TGX, cat. no. 456–1094, Bio-Rad), and resolved proteins were transferred onto 0.2-μm pore size polyvinylidene difluoride (PVDF) blotting membranes (cat. no. LC2002, Thermo Fisher Scientific) using mini trans-blot electrophoretic transfer cell (Bio-Rad). The membranes were blocked with non-fat dry milk (5% wt/vol) in 1×Tris- buffered saline-Tween-20 (TBST) for 1 h at room temperature, and were subsequently probed with primary antibodies at a pre-determined optimal concentration in non-fat dry milk (5% wt/vol in TBST) overnight at 4 °C. The membranes were washed three times (15 min each) in TBST and then incubated with horse radish peroxidase (HRP)-conjugated secondary antibodies for 1 h at room temperature. Following sufficient washing with TBST, the membranes were exposed with ECL Western Blotting Substrate (Bio-Rad), and the signal was detected using the ChemiDoc MP Imaging System (Bio-Rad) and quantified using the ImageJ (v1.53a) software from NIH. Antibodies were purchased from Cell Signaling Technologies (CST) and the dilutions are as follows: BCL-xL (Cat. No. 2762S, 1:1000) and BCL-2 (Cat. No. 2870S, 1:1000). β-actin antibody was purchased from MP Biomedicals (Cat. No. 8691001, 1:20,000).

The target in another experiment is T2, WT BCL-xL (Homo sapiens, UniProt Q07817).
T2 construct: BCL-xL (aa 2-212) and BCL-2 (aa 1-207) transformed cells were grown in LB broth; SMT3 (N); made in house; host or cells: E. coli BL21 (DE3) codon plus
T2 sequence (Q07817 2-212): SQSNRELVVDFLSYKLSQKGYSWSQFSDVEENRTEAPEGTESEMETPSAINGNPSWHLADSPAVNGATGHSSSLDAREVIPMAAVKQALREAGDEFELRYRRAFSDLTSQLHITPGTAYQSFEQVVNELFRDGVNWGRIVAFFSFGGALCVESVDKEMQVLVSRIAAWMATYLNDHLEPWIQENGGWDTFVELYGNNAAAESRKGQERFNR
In words: AlphaScreen displacement binary binding assay, WT BCL-xL. The settings on record: for Kd: Supplementary Fig. 11. The protocol: To test the binary/ternary binding affinities of compounds to BCL-2/BCL-xL, AlphaScreen displacement binding assay was performed to test the capabilities of testing compounds to displace a Biotin-tagged Bim (Biotin-[…]) or Bad (Biotin-[…]) from BCL-2 or BCL-xL for BCL-2 and BCL-xL binding affinities, respectively. All reagents were diluted in assay buffer of 25 mM HEPES, pH 7.5, 150 mM NaCl, 0.1% BSA, and 0.005% tween 20 prior incubation. To a 96-well PCR plate (VWR, Cat. No. 82006-636) was added 10 μL Biotin-tagged Bim (15 nM for WT or 50 nM for mutants) or Bad (15 nM for WT or 50 nM for mutants), 10 μL series diluted compounds solution (2 or 3 or 4× dilution), and 10 μL self-made 6×His tagged BCL-2 WT or mutants (25 nM WT or 50 nM mutants) or 10 μL self-made BCL-xL WT and mutants (10 nM WT or 50 nM mutants). After incubating at room temperature for 30 min, 5 µL of 160 μg/mL of anti-6×His acceptor beads (PerkinElmer, Cat. No. AL128M) was added and the mixture was incubated at room temperature for 15 min. 5 µL of 160 μg/mL of streptavidin donor beads (PerkinElmer, 6760002) was then added under subdued light and the mixture was incubated at dark for 30 min before being transferred to two adjacent wells (17 µL each) of 384-well white OptiPlate (PerkinElmer, Cat. No. 6008280). The luminescence signal was detected on a Biotek’s Synergy Neo2 multimode plate reader installed with an AphaScreen filter cube. The Ki values of each compounds were calculated by fitting data into the “Binding-competitive, One site-Fit Ki” function in GraphPad Prism (9.2.0) based on concentrations of Biotin–peptide used and experimentally determined Kd values of each 6×His protein &&&and Biotin–Peptide pair.

Structures are written as SMILES.

T1 sequence (Q07817 whole entry): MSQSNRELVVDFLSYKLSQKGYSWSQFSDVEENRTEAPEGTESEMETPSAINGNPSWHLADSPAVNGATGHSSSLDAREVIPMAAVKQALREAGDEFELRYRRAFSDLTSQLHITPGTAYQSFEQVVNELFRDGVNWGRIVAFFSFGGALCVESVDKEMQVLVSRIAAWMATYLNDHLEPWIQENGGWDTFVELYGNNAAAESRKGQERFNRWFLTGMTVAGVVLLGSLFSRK

At BCL-xL (Jurkat cells), `Cc1ncsc1-c1ccc(C(C)NC(=O)C2CC(O)CN2C(=O)C(NC(=O)CCCCCCC(=O)N2CCN(CC3(C)CCC(c4ccc(Cl)cc4)=C(CN4CCN(c5ccc(C(=O)NS(=O)(=O)c6ccc(NC(CCN7CCOCC7)CSc7ccccc7)c(S(=O)(=O)C(F)(F)F)c6)cc5)CC4)C3)CC2)C(C)(C)C)cc1` (stereo not drawn) [753b] yielded a DC50 of 3.7 nM. The equilibrium dissociation constant (Kd) on WT BCL-xL was about 28 nM. On WT BCL-xL (mean ± s.d., n=3), the Ki amounted to 21.9 ± 7.3 nM.

As to `Cc1ncsc1-c1ccc([C@H](C)NC(=O)[C@@H]2C[C@@H](O)CN2C(=O)[C@@H](NC(=O)CN2CCN(CC(=O)N3CCN(C[C@]4(C)CCC(c5ccc(Cl)cc5)=C(CN5CCN(c6ccc(C(=O)NS(=O)(=O)c7ccc(N[C@H](CCN8C[C@@H]9C[C@H]8CO9)CSc8ccccc8)c(S(=O)(=O)C(F)(F)F)c7)cc6)CC5)C4)CC3)CC2)C(C)(C)C)cc1` [WH244], on BCL-xL (0.1 μM WH244, Jurkat cells), the “Earliest time at which BCL-xL degradation is seen” value is listed as 1 h and the “Time to nearly complete degradation of BCL-xL” value turned out to be 4 h. The “Time for BCL-xL level to recover to pretreatment level after removal of degrader” value on BCL-xL (0.1 μM WH244 for 16 h, then fresh medium, Jurkat cells) was 24 to 48 h. In addition, the “DC50 fold better than 753b (BCL-xL)” value on BCL-xL (Jurkat cells, 16 h) is listed as ~ 6.2 fold. On BCL-xL (Jurkat cells), this compound came in with a DC50 of 0.6 nM. For the same compound, the Kd on WT BCL-xL is about 6.14 nM.

(Values after PMC10979003, “Development and crystal structures of a potent second-generation dual degrader of BCL-2 and BCL-xL” (Nature Communications, 2024).)
